{"source": "patent US20220064689A1", "about": "“AMPHOTERIC GLYCOLIPID BIOSURFACTANT AND ITS PREPARATION METHOD” (Mikros Biochem, priority 2020, published 2022)", "key": {"[1]": {"tested_on": "Candida albicans (ATCC 10231)", "experiment": "Antibacterial analysis per national standard WS/T 650-2019, viable count over 28 days", "format": "cell-based", "conditions": "4.0% (aqueous solution of surfactant, or 4.0% sodium benzoate comparative)", "experimental": "(§1) Using the protocol set out in the national standard test WS/T 650-2019 “Evaluation Method of Antibacterial and Antibacterial Effects”, the amphiphilic biosurfactant produced as described above was analysed for antibacterial effects."}, "[2]": {"tested_on": "Staphylococcus aureus (ATCC 6538)", "experiment": "Antibacterial analysis per national standard WS/T 650-2019, viable count over 28 days", "format": "cell-based", "conditions": "4.0% (aqueous solution of surfactant, or 4.0% sodium benzoate comparative)", "experimental": "as §1"}}, "note": "Where “and” joins values, the source holds several entries; their conditions need not be identical. Identical values can stand only once.", "data": [{"smiles": "O=C([O-])c1ccccc1.[Na+]", "note": "[sodium benzoate]", "values": [{"measurement": "CFU/mL Candida albicans (ATCC 10231) Day 0", "setting": "[1]; Day 0", "result": "4.0 × 10^5 CFU/mL"}, {"measurement": "CFU/mL Candida albicans (ATCC 10231) Day 7", "setting": "[1]; Day 7", "result": "3.4 × 10^2 CFU/mL"}, {"measurement": "CFU/mL Candida albicans (ATCC 10231) Day 14", "setting": "[1]; Day 14", "result": "3.0 × 10^1 CFU/mL"}, {"measurement": "CFU/mL Candida albicans (ATCC 10231) Day 21", "setting": "[1]; Day 21", "result": "<10", "unit": "CFU/mL"}, {"measurement": "CFU/mL Candida albicans (ATCC 10231) Day 28", "setting": "[1]; Day 28", "result": "<10", "unit": "CFU/mL"}, {"measurement": "CFU/mL Staphylococcus aureus (ATCC 6538) Day 0", "setting": "[2]; Day 0", "result": "5.0 × 10^6 CFU/mL and 5.2 × 10^6 CFU/mL"}, {"measurement": "CFU/mL Staphylococcus aureus (ATCC 6538) Day 14", "setting": "[2]; Day 14", "result": "8.7 × 10^1 CFU/mL"}, {"measurement": "CFU/mL Staphylococcus aureus (ATCC 6538) Day 21", "setting": "[2]; Day 21", "result": "<10", "unit": "CFU/mL"}]}]}
